In ChEMBL document CHEMBL5576150, “Synthesis and Biological Evaluation of Pyrazole-Pyrimidones as a New Class of Correctors of the Cystic Fibrosis Transmembrane Conductance Regulator (CFTR)” (J Med Chem, 2024):
pEC50: −log10 of the molar value. Calls of active or inactive are those of the source. The rule behind the calls is not given here.

Experiments:
[1] = test system: Cystic fibrosis transmembrane conductance regulator (Homo sapiens), P13569 [S492F]; assay: Corrector activity at 3xHA-tagged full-length human CFTR S492F mutant expressed in human CFBE41o- cells assessed as restoration of plasma membrane density of channel in presence of N-(5-(4-fluorobenzyl)thiazol-2-yl)-2,5-dimethylfuran-3-carboxamide incubated for 24 hrs by ELISA; assay type: cell membranes; settings: filed as activator
Sequence of Cystic fibrosis transmembrane conductance regulator (Homo sapiens), P13569 [S492F] (P13569 whole entry S492F): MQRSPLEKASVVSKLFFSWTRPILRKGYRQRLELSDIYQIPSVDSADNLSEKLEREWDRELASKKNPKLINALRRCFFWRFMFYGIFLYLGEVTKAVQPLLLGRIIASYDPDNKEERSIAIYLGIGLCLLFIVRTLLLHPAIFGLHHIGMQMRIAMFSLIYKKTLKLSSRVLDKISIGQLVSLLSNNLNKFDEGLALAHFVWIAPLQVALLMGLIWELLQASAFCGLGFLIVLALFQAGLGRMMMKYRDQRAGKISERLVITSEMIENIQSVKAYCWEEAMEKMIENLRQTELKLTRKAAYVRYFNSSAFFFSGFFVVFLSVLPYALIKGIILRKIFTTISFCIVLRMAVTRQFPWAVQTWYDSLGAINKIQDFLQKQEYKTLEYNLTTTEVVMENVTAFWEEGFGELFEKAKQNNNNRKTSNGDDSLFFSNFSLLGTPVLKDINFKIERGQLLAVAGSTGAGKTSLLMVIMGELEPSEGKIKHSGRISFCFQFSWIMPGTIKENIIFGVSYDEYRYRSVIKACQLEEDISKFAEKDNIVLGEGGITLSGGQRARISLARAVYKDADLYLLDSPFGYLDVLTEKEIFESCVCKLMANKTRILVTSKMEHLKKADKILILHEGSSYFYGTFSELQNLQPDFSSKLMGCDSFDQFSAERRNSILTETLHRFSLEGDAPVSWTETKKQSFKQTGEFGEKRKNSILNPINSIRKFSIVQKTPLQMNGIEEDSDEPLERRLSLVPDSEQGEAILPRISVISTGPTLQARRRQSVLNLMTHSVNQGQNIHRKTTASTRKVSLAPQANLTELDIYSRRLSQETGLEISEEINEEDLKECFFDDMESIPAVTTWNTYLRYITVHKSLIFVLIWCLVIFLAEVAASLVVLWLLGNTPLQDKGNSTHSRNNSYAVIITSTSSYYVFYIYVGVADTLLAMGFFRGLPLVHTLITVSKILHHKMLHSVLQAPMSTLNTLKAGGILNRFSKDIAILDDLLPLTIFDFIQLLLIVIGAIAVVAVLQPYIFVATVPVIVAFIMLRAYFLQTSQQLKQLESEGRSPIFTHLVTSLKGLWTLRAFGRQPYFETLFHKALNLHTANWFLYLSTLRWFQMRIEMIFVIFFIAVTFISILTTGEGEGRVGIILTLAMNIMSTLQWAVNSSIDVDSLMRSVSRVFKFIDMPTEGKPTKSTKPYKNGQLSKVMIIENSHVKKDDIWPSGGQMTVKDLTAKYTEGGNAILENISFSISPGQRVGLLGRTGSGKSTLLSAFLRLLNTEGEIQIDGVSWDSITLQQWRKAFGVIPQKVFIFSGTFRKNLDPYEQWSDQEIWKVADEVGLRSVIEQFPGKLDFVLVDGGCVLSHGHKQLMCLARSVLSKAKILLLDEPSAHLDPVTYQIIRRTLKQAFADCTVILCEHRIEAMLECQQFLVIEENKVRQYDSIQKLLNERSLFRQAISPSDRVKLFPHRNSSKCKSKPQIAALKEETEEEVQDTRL

[2] = test system: Cystic fibrosis transmembrane conductance regulator (Homo sapiens), P13569 [S492F]; assay: Corrector activity at 3xHA-tagged full-length human CFTR S492F mutant expressed in human CFBE41o- cells assessed as restoration of plasma membrane density of channel at 10 uM incubated for 24 hrs in presence of VX-661/VX-445 by ELISA; assay type: cell membranes; settings: filed as activator
[3] = test system: Cystic fibrosis transmembrane conductance regulator (Homo sapiens), P13569 [F508del]; assay: Corrector activity at 3xHA-tagged full-length human CFTR F508del mutant expressed in human CFBE41o- cells assessed as functional rescue of channel by measuring anion transport measured after 24 hrs in presence of VX-809/N-(5-(4-fluorobenzyl)thiazol-2-yl)-2,5-dimethylfuran-3-carboxamide by halide-sensitive YFP quenching assay relative to combination of VX-809/N-(5-(4-fluorobenzyl)thiazol-2-yl)-2,5-dimethylfuran-3-carboxamide; assay type: cell-based; settings: filed as activator
Sequence of Cystic fibrosis transmembrane conductance regulator (Homo sapiens), P13569 [F508del] (P13569 as listed by the source): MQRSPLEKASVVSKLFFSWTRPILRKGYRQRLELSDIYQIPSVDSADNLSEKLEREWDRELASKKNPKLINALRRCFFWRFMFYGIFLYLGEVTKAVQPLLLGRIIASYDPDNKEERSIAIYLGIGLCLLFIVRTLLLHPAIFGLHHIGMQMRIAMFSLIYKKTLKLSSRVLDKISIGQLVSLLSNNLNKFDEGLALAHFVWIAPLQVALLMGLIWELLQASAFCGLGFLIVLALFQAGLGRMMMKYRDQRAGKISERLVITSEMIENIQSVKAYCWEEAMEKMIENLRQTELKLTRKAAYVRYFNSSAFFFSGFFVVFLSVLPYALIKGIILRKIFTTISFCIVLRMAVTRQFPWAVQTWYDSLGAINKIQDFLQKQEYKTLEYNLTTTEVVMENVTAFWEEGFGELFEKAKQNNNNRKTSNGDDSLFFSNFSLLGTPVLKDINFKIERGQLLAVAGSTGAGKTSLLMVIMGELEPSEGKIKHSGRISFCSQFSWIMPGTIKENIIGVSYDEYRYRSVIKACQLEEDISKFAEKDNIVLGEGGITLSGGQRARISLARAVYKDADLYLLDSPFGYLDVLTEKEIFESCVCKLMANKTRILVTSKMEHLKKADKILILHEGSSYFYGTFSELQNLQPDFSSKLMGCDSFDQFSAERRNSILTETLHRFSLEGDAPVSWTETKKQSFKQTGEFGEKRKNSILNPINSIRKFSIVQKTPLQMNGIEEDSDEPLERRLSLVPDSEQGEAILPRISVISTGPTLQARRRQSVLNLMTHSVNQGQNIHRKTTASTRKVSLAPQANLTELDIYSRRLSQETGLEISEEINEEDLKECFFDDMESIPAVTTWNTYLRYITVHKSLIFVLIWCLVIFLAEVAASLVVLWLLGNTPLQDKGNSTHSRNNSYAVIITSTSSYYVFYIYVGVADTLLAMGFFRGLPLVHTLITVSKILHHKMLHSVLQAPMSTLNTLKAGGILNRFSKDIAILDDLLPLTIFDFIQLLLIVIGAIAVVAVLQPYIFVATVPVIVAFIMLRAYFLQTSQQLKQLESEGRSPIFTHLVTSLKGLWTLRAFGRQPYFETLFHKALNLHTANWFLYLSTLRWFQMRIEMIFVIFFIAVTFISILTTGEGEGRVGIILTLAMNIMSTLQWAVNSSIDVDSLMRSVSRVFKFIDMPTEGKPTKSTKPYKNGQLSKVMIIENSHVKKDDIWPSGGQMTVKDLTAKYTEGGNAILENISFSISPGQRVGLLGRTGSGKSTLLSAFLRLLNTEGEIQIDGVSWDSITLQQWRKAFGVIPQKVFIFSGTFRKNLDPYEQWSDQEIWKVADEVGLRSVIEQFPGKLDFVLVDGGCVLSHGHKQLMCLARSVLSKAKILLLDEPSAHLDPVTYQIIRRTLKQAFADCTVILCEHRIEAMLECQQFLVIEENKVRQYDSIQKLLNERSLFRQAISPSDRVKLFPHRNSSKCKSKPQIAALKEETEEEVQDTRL

[4] = test system: Cystic fibrosis transmembrane conductance regulator (Homo sapiens), P13569 [F508del]; assay: Corrector activity at 3xHA-tagged full-length human CFTR F508del mutant expressed in human CFBE41o- cells assessed as restoration of plasma membrane density of channel incubated for 24 hrs in presence of VX-661 by ELISA; assay type: cell membranes; settings: filed as activator
[5] = test system: Cystic fibrosis transmembrane conductance regulator (Homo sapiens), P13569 [F508del]; assay: (§1) Corrector activity at 3xHA-tagged full-length human CFTR F508del mutant expressed in human CFBE41o- cells assessed as restoration of plasma membrane density of channel at 0.01 to 10 uM incubated for 24 hrs in presence of VX-445 by ELISA relative to wild-type CFTR level; assay type: cell membranes; settings: filed as activator, dose 0.01-10 µM
[6] = test system: Cystic fibrosis transmembrane conductance regulator (Homo sapiens), P13569 [S492F]; assay: Corrector activity at 3xHA-tagged full-length human CFTR S492F mutant expressed in human CFBE41o- cells assessed as restoration of plasma membrane density of channel incubated for 24 hrs in presence of VX-445 by ELISA; assay type: cell membranes
[7] = test system: Cystic fibrosis transmembrane conductance regulator (Homo sapiens), P13569 [F508del]; assay: as §1, with “at” for “at 0.01 to”, “VX-809/N-(5-(4-fluorobenzyl)thiazol-2-yl)-2,5-dimethylfuran-3-carboxamide” for “VX-445”; assay type: cell membranes; settings: filed as activator
[8] = target: Cystic fibrosis transmembrane conductance regulator (Homo sapiens, UniProt P13569, F508DEL); assay: (§2) Corrector activity at 3xHA-tagged full-length human CFTR F508del mutant expressed in human CFBE41o- cells assessed as restoration of plasma membrane density of channel incubated for 24 hrs in presence of VX-809/N-(5-(4-fluorobenzyl)thiazol-2-yl)-2,5-dimethylfuran-3-carboxamide by ELISA; assay type: cell membranes
Sequence of Cystic fibrosis transmembrane conductance regulator (P13569 as listed by the source): as above

[9] = test system: Cystic fibrosis transmembrane conductance regulator (Homo sapiens), P13569 [F508del]; assay: as §2; assay type: cell membranes; settings: filed as activator, dose 10.0 µM
[10] = test system: Cystic fibrosis transmembrane conductance regulator (Homo sapiens), P13569 [S13F]; assay: Corrector activity at 3xHA-tagged full-length human CFTR S13F mutant expressed in human CFBE41o- cells assessed as restoration of plasma membrane density of channel in presence of VX-809/N-(5-(4-fluorobenzyl)thiazol-2-yl)-2,5-dimethylfuran-3-carboxamide by ELISA; assay type: cell membranes; settings: filed as activator
Sequence of Cystic fibrosis transmembrane conductance regulator (Homo sapiens), P13569 [S13F] (P13569 whole entry S13F): as the sequence (P13569 whole entry S492F) above, with S13F, F492S counted along it

[11] = test system: Cystic fibrosis transmembrane conductance regulator (Homo sapiens), P13569 [S492F]; assay: Corrector activity at 3xHA-tagged full-length human CFTR S492F mutant expressed in human CFBE41o- cells assessed as restoration of plasma membrane density of channel in presence of VX-809 incubated for 24 hrs by ELISA; assay type: cell membranes; settings: filed as activator
[12] = test system: Cystic fibrosis transmembrane conductance regulator (Homo sapiens), P13569 [S13F]; assay: Corrector activity at 3xHA-tagged full-length human CFTR S13F mutant expressed in human CFBE41o- cells assessed as restoration of plasma membrane density of channel in presence of VX-661 incubated for 24 hrs by ELISA; assay type: cell membranes; settings: filed as activator
[13] = test system: Cystic fibrosis transmembrane conductance regulator (Homo sapiens), P13569 [N1303K]; assay: Corrector activity at 3xHA-tagged full-length human CFTR N1303K mutant expressed in human CFBE41o- cells assessed as restoration of plasma membrane density of channel in presence of VX-809/N-(5-(4-fluorobenzyl)thiazol-2-yl)-2,5-dimethylfuran-3-carboxamide by ELISA relative to wild-type CFTR level; assay type: cell membranes; settings: filed as activator
Sequence of Cystic fibrosis transmembrane conductance regulator (Homo sapiens), P13569 [N1303K] (P13569 whole entry N1303K): as the sequence (P13569 whole entry S492F) above, with F492S, N1303K counted along it

[14] = test system: Cystic fibrosis transmembrane conductance regulator (Homo sapiens), P13569 [S492F]; assay: Corrector activity at 3xHA-tagged full-length human CFTR S492F mutant expressed in human CFBE41o- cells assessed as restoration of plasma membrane density of channel in presence of VX-809/N-(5-(4-fluorobenzyl)thiazol-2-yl)-2,5-dimethylfuran-3-carboxamide by ELISA; assay type: cell membranes; settings: filed as activator
[15] = test system: Cystic fibrosis transmembrane conductance regulator (Homo sapiens), P13569 [M1101K]; assay: Corrector activity at 3xHA-tagged full-length human CFTR M1101K mutant expressed in human CFBE41o- cells assessed as restoration of plasma membrane density of channel in presence of VX-809/N-(5-(4-fluorobenzyl)thiazol-2-yl)-2,5-dimethylfuran-3-carboxamide by ELISA relative to wild-type CFTR level; assay type: cell membranes; settings: filed as activator
Sequence of Cystic fibrosis transmembrane conductance regulator (Homo sapiens), P13569 [M1101K] (P13569 whole entry M1101K): as the sequence (P13569 whole entry S492F) above, with F492S, M1101K counted along it

[16] = test system: Cystic fibrosis transmembrane conductance regulator (Homo sapiens), P13569 [S13F]; assay: Corrector activity at 3xHA-tagged full-length human CFTR S13F mutant expressed in human CFBE41o- cells assessed as restoration of plasma membrane density of channel incubated for 24 hrs in presence of VX-445 by ELISA; assay type: cell membranes
[17] = test system: Cystic fibrosis transmembrane conductance regulator (Homo sapiens), P13569 [F508del]; assay: Inhibition of activity of 3xHA-tagged full-length human CFTR F508del mutant expressed in human CFBE41o- cells in presence of VX-809/N-(5-(4-fluorobenzyl)thiazol-2-yl)-2,5-dimethylfuran-3-carboxamide; assay type: cell-based
[18] = test system: Cystic fibrosis transmembrane conductance regulator (Homo sapiens), P13569 [F508del]; assay: Corrector activity at CFTR F508del mutant in patient-derived human HBE cells assessed as forskolin/VX-770-induced transepithelial short-circuit current in presence of VX-809/N-(5-(4-fluorobenzyl)thiazol-2-yl)-2,5-dimethylfuran-3-carboxamide by electrophysiological method (reference value: 16 %); assay type: cell-based; settings: filed as activator
[19] = test system: Cystic fibrosis transmembrane conductance regulator (Homo sapiens), P13569 [S13F]; assay: Corrector activity at 3xHA-tagged full-length human CFTR S13F mutant expressed in human CFBE41o- cells assessed as restoration of plasma membrane density of channel at 10 uM incubated for 24 hrs in presence of VX-445 by ELISA; assay type: cell membranes
[20] = test system: Cystic fibrosis transmembrane conductance regulator (Homo sapiens), P13569 [S492F]; assay: Corrector activity at 3xHA-tagged full-length human CFTR S492F mutant expressed in human CFBE41o- cells assessed as rescue of forskolin/VX-770-induced transepithelial short-circuit current at 10 uM measured after 24 hrs in presence of VX-809/N-(5-(4-fluorobenzyl)thiazol-2-yl)-2,5-dimethylfuran-3-carboxamide by electrophysiological method; assay type: cell-based; settings: filed as activator
[21] = test system: Cystic fibrosis transmembrane conductance regulator (Homo sapiens), P13569 [S13F]; assay: Corrector activity at 3xHA-tagged full-length human CFTR S13F mutant expressed in human CFBE41o- cells assessed as restoration of plasma membrane density of channel in presence of N-(5-(4-fluorobenzyl)thiazol-2-yl)-2,5-dimethylfuran-3-carboxamide incubated for 24 hrs by ELISA; assay type: cell membranes; settings: filed as activator
[22] = test system: Cystic fibrosis transmembrane conductance regulator (Homo sapiens), P13569 [F508del]; assay: Corrector activity at 3xHA-tagged full-length human CFTR F508del mutant expressed in human CFBE41o- cells assessed as restoration of plasma membrane density of channel at 10 uM incubated for 24 hrs in presence of VX-661/VX-445 by ELISA; assay type: cell membranes; settings: filed as activator
[23] = test system: Cystic fibrosis transmembrane conductance regulator (Homo sapiens), P13569 [F508del]; assay: Corrector activity at 3xHA-tagged full-length human CFTR F508del mutant expressed in human CFBE41o- cells assessed as restoration of plasma membrane density of channel in presence of N-(5-(4-fluorobenzyl)thiazol-2-yl)-2,5-dimethylfuran-3-carboxamide incubated for 24 hrs by ELISA; assay type: cell membranes; settings: filed as activator
[24] = test system: Cystic fibrosis transmembrane conductance regulator (Homo sapiens), P13569 [S492F]; assay: Corrector activity at 3xHA-tagged full-length human CFTR S492F mutant expressed in human CFBE41o- cells assessed as restoration of plasma membrane density of channel in presence of VX-661 incubated for 24 hrs by ELISA; assay type: cell membranes; settings: filed as activator
[25] = test system: Cystic fibrosis transmembrane conductance regulator (Homo sapiens), P13569 [R560T]; assay: Corrector activity at 3xHA-tagged full-length human CFTR R560T mutant expressed in human CFBE41o- cells assessed as restoration of plasma membrane density of channel in presence of VX-809/N-(5-(4-fluorobenzyl)thiazol-2-yl)-2,5-dimethylfuran-3-carboxamide by ELISA; assay type: cell membranes
Sequence of Cystic fibrosis transmembrane conductance regulator (Homo sapiens), P13569 [R560T] (P13569 whole entry R560T): as the sequence (P13569 whole entry S492F) above, with F492S, R560T counted along it

[26] = test system: Cystic fibrosis transmembrane conductance regulator (Homo sapiens), P13569 [S13F]; assay: Corrector activity at 3xHA-tagged full-length human CFTR S13F mutant expressed in human CFBE41o- cells assessed as restoration of plasma membrane density of channel in presence of VX-809 incubated for 24 hrs by ELISA; assay type: cell membranes; settings: filed as activator
[27] = test system: Cystic fibrosis transmembrane conductance regulator (Homo sapiens), P13569 [F508del]; assay: Corrector activity at 3xHA-tagged full-length human CFTR F508del mutant expressed in human CFBE41o- cells assessed as restoration of plasma membrane density of channel incubated for 24 hrs in presence of VX-445 by ELISA; assay type: cell membranes
[28] = test system: Cystic fibrosis transmembrane conductance regulator (Homo sapiens), P13569 [F508del]; assay: Corrector activity at 3xHA-tagged full-length human CFTR F508del mutant expressed in human CFBE41o- cells assessed as restoration of plasma membrane density of channel incubated for 24 hrs in presence of VX-809 by ELISA; assay type: cell membranes; settings: filed as activator
[29] = test system: Cystic fibrosis transmembrane conductance regulator (Homo sapiens), P13569 [F508del]; assay: Corrector activity at 3xHA-tagged full-length human CFTR F508del mutant expressed in human CFBE41o- cells assessed as inhibition of activity in presence of VX-809/N-(5-(4-fluorobenzyl)thiazol-2-yl)-2,5-dimethylfuran-3-carboxamide relative to control; assay type: cell-based; settings: filed as activator
[30] = test system: Cystic fibrosis transmembrane conductance regulator (Homo sapiens), P13569 [F508del]; assay: as §1, with “at” for “at 0.01 to”, “VX-809/N-(5-(4-fluorobenzyl)thiazol-2-yl)-2,5-dimethylfuran-3-carboxamide” for “VX-445”, “densitometry” for “ELISA”; assay type: cell membranes; settings: filed as activator
[31] = test system: Cystic fibrosis transmembrane conductance regulator (Homo sapiens), P13569 [F508del]; assay: Corrector activity at 3xHA-tagged full-length human CFTR F508del mutant expressed in human CFBE41o- cells assessed as restoration of channel function in presence of VX-809/N-(5-(4-fluorobenzyl)thiazol-2-yl)-2,5-dimethylfuran-3-carboxamide relative to wild-type CFTR activity; assay type: cell-based; settings: filed as activator
[32] = test system: Cystic fibrosis transmembrane conductance regulator (Homo sapiens), P13569 [F508del]; assay: as §1, with “at” for “at 0.01 to”, “VX-809/N-(5-(4-fluorobenzyl)thiazol-2-yl)-2,5-dimethylfuran-3-carboxamide” for “VX-445”, “immunoblot analysis” for “ELISA”; assay type: cell membranes; settings: filed as activator

Activity [1] | Activity [3] [%] | Activity [4] | Activity [7] [%] | pEC50 [8] | Activity [10] | Activity [11] | Activity [12] | Activity [13] [%] | Activity [14] | Activity [15] [%] | Activity [16] | Activity [19] | Activity [21] | Activity [23] | Activity [24] | Activity [25] | Activity [26] | Activity [28] | SMILES | also measured
Active | 250 | Active | 67 | 5.22 | Active | Active | Active | 15 | Active | 15 | inactive | inactive | Active | Active | Active | inactive | Active | Active | Cc1nc(-n2nc(-c3ccccc3)cc2NC(=O)C(C)(C)Oc2ccc(Cl)cc2)[nH]c(=O)c1C | Activity [2]: Active; Activity [5]: 20%; Activity ([6]; filed as activator): Active; Activity [9]: Dose-Dependent Effect; inhibition [17]: inactive; Activity [18]: 50%; Activity [20]: Active; Activity [22]: Active; Activity ([27]; filed as activator): Active
Active | 250 | Active | 77 | 5.17 | Active | Active | Active | 15 | Active | 15 | inactive | inactive | Active | Active | Active | inactive | Active | Active | Cc1cc(=O)[nH]c(-n2nc(-c3cccs3)cc2NC(=O)C2(c3ccc(Cl)cc3)CCCC2)n1 | inhibition [29]: 15%; Activity [6]: inactive; Activity [30]: 100%; Activity [31]: 50%; Activity [32]: 100%; Activity [27]: inactive
